{
  "source": "ChEMBL document CHEMBL1201862",
  "about": "“PubChem BioAssay data set” (2004)",
  "key": {"[1]": {"target": "T1, Methionyl-tRNA synthetase, putative (Trypanosoma brucei brucei, UniProt Q38C91)", "T1 sequence (Q38C91 whole entry)": "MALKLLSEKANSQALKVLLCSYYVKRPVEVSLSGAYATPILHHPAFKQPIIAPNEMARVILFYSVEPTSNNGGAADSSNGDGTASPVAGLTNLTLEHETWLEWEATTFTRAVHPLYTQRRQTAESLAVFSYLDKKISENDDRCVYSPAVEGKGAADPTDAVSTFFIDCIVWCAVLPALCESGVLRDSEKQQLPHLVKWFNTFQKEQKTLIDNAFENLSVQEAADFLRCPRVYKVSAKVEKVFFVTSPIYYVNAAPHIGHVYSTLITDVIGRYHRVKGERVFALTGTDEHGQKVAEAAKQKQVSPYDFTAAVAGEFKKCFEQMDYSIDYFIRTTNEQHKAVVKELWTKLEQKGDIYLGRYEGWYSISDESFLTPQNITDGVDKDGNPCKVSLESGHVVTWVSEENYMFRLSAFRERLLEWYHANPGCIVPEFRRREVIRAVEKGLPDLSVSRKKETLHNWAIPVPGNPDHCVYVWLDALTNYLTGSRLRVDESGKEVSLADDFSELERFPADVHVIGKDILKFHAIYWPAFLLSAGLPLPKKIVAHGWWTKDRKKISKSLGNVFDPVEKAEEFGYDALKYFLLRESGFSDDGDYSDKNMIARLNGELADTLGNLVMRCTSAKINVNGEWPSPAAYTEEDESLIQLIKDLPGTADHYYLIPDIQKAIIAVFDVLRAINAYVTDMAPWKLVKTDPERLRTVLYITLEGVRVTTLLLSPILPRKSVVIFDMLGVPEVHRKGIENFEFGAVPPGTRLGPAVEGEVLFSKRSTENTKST", "format": "functional, Trypanosoma brucei brucei strain 927/4 GUTat10.1"}, "[2]": {"experiment": "Late stage counterscreen for inhibitors of Trypanosoma brucei methionyl tRNA synthetase (MetRS): Luminescence-based cell-based high throughput dose response assay to identify compounds that are cytotoxic to Jurkat human T lymphocyte cells.", "format": "functional"}, "[3]": {"target": "T1, Methionyl-tRNA synthetase, putative", "format": "functional, Trypanosoma brucei brucei strain 927/4 GUTat10.1", "remark": "listed apart in the source"}, "[4]": {"experiment": "Counterscreen for inhibitors of Trypanosoma brucei methionyl tRNA synthetase (MetRS): Luminescence-based cell-based high throughput dose response assay to identify compounds that are cytotoxic to Jurkat human T lymphocyte cells.", "format": "functional"}, "[5]": {"experiment": "growth inhibition of intracellular T. cruzi, dose response, cell-based, plate reader, dry powder samples (AID 651845)", "format": "functional"}, "[6]": {"experiment": "T. cruzi intracellular amastigote growth inhibition, dose response, imaging, CA-I/72 strain, bovine embryo skeletal muscle, dry powder (AID 651885)", "format": "functional, cell-based"}, "[7]": {"experiment": "T. cruzi growth inhibition in host cells, dose response, cell-based, plate reader, dry powder, set 2 (AID 652275)", "format": "functional"}, "[8]": {"experiment": "HepG2 cell cytotoxicity, dose response, cytotoxicity control for Shn3 inhibitor project, CellTiter-Glo, cherry-picked (AID 624134)", "format": "functional, cell-based"}, "[9]": {"experiment": "control 3'UTR Renilla luciferase suppression, dose response, counter-screen for Shn3 inhibitor project, cell-based, Clone20-Shn3RL, cherry-picked (AID 624133)", "format": "functional"}, "[10]": {"experiment": "reduction of Shn3 3'UTR firefly luciferase signal, dose response, Schnurri-3 inhibitor project, cell-based, Clone20 osteoblasts, cherry-pick, set 2 (AID 720490);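 also: actives lower the luminescence signal as inhibitors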", "format": "functional"}, "[11]": {"experiment": "Shn3 3'UTR reporter inhibitors, dose response, cell-based, Clone20 osteoblasts, firefly luciferase, cherry-picked (AID 624132)", "format": "functional"}, "BJ [12]": {"system": "BJ", "experiment": "cytotoxicity toward BJ-TERT fibroblasts, dose response, cell-based, RAS-independent, luminescence (AID 1933)", "format": "functional", "conditions": "Homo sapiens"}, "[13]": {"experiment": "ZM109 Env clade C HIV-1 fusion inhibitors, dose response, HeLa effector, CEM target cells, luciferase, cherry-pick (AID 652058)", "format": "functional, cell-based"}, "[14]": {"experiment": "A549 cell cytotoxicity, dose response, cytotoxicity control, plate reader, cherry-pick, antagonist series (AID 743412)", "format": "functional, cell-based"}, "[15]": {"experiment": "MC4R antagonists, dose response, counter-screen for LGR2 antagonist project, cell-based, plate reader, cherry pick (AID 743444);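 also: transfected HEK 293 cells stimulated with alpha-MSH peptide; potency of inhibitors of the alpha-MSH evoked signal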", "format": "functional"}, "[16]": {"experiment": "LGR2 antagonists, dose response, cell-based, HEK293, CRE-luciferase reporter, cherry pick, set 2 (AID 743343);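 also: transfected cells were stimulated with diluted bursicon conditioned medium after compound addition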", "format": "functional"}, "Paired box protein Pax-8": {"target": "Paired box protein Pax-8 (Homo sapiens, UniProt Q06710)", "sequence (Q06710 whole entry)": "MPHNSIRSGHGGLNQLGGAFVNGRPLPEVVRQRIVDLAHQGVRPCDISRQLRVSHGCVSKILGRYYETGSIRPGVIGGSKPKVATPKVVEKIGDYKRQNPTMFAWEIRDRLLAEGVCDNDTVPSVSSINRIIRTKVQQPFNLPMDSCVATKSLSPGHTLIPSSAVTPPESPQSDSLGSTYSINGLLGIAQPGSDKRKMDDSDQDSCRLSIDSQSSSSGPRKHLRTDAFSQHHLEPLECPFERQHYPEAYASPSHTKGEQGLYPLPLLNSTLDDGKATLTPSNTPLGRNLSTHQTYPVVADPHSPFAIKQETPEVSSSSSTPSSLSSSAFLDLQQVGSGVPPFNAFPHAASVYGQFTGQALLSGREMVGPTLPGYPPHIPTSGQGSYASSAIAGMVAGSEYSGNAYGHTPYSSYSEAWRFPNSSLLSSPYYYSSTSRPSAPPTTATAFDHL", "experiment": "inhibitors of PAX8-driven TPO luciferase reporter, dose response, RMG-I cells, cherry-pick (AID 687027);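 also: luciferase reporter driven by Pax8 target thyroperoxidase promoter measured by SteadyGlo luminescence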", "format": "functional, cell-based"}, "BJ [17]": {"system": "BJ", "experiment": "cytotoxicity toward BJ-TERT-LT-ST fibroblasts, dose response, cell-based, RAS-independent, luminescence (AID 1935);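 also: BJ fibroblasts immortalized with TERT plus LT and ST oncogenes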", "format": "functional", "conditions": "Homo sapiens"}, "[18]": {"experiment": "HEK293 cell cytotoxicity, dose response, cytotoxicity control, plate reader, cherry-picked samples (AID 743446)", "format": "functional, cell-based"}, "[19]": {"target": "Luciferin 4-monooxygenase (Photinus pyralis, UniProt P08659)", "sequence (P08659 whole entry)": "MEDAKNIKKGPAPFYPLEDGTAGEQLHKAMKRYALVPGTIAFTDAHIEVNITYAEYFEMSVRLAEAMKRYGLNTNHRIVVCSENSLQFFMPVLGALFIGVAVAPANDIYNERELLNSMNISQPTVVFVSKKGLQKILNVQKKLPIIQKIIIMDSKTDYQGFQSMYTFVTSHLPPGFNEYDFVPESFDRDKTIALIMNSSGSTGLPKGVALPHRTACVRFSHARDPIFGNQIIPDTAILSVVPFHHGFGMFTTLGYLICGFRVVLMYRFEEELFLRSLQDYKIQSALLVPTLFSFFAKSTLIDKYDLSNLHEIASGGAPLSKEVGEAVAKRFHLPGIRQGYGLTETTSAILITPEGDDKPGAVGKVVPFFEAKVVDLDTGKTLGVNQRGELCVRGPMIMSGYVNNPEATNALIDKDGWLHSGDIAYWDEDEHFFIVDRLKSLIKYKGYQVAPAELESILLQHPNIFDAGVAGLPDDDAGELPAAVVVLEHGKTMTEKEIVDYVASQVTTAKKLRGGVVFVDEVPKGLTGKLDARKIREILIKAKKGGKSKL", "experiment": "firefly luciferase enzyme inhibitors, dose response, biochemical, luminescence (AID 1891)"}, "[20]": {"experiment": "HepG2 cell cytotoxicity, dose response, cytotoxicity control, plate reader, cherry-pick, antagonist series (AID 743416)", "format": "functional, cell-based"}, "[21]": {"experiment": "off-target signal loss in HeLa-CEM21 co-culture – HeLa F-luc CTL cells, cherry-picked, counter-screen for HIV-1 Env fusion inhibitor project, dose response (AID 652040);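 also: potency for signal decrease marking cytotoxic or nonspecific inhibition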", "format": "functional, cell-based"}, "[22]": {"experiment": "cytotoxicity toward DRD oncogenic fibroblasts, dose response, cell-based, non-viral oncogenic, luminescence (AID 1934)", "format": "functional", "conditions": "Homo sapiens"}, "[23]": {"experiment": "Luminescence Cell-Based Dose Confirmation HTS to Identify Inhibitors of Platelet Dense Granule Release. [Related pubchem assays: 1663 (Primary HTS), 1678 (Summary of Project)]", "format": "functional"}, "[24]": {"experiment": "non-specific cell cytotoxicity, dose response, cytotoxicity control for PAX8 inhibitor project, plate reader, dry powder samples (AID 743021)", "format": "functional, cell-based"}, "[25]": {"experiment": "cytotoxicity in HEK-293T cells, dose response, cytotoxicity control for TCR NF-kB inhibitor project, luminescence, T-cell screen hits (AID 489026);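 also: cells exposed to compound about 14 hours before the viability readout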", "format": "functional, cell-based"}, "[26]": {"experiment": "inhibitors of HIV Env-driven cell fusion, dose response, cherry-pick (AID 652057)", "format": "functional, cell-based"}, "[27]": {"experiment": "inhibitors of clade B AD8 Env fusion, dose response, cell-based, cherry-pick (AID 652062);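 also: potency is for inhibitors of fusion seen as a drop in luminescence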", "format": "functional"}, "[28]": {"experiment": "CEM21 lymphoblast cell cytotoxicity, dose response, cytotoxicity control for viral fusion inhibitor project, CellTiter-Glo luminescence, cherry-picked (AID 652042);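 also: potency for signal decrease meaning cytotoxicity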", "format": "functional, cell-based"}, "BJ [29]": {"system": "BJ", "experiment": "cells", "format": "functional, cell-based", "conditions": "Homo sapiens"}, "[30]": {"experiment": "Artemis endonuclease inhibitor potency, dose response, biochemical, fluorescence intensity (AID 720701)", "format": "functional"}, "[31]": {"experiment": "cytotoxicity in MIN6 insulinoma cells, dose response, cytotoxicity control, cell-based, mouse insulinoma (AID 2122);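 also: confirmatory high-throughput counterscreen run to flag cytotoxic compounds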", "format": "functional"}, "[32]": {"experiment": "insulin promoter down-regulators in MIN6 cells, imaging, high-content screening, mouse beta cells (AID 1628)", "format": "functional"}},
  "note": "Activity calls are given as the source filed them.",
  "data": [
    {"smiles": "O=C(NNC(=O)c1ccc(-n2cncn2)c([N+](=O)[O-])c1)c1ccc(Cl)cc1", "values": [
      {"measurement": "IC50", "setting": "[1]", "result": "2.72 µM (active)"},
      {"measurement": "IC50", "setting": "[2]", "result": "> 83.3 µM (inactive)"},
      {"measurement": "IC50", "setting": "[3]", "result": "4.43 µM (active)"},
      {"measurement": "IC50", "setting": "[4]", "result": "83.2 µM (inactive)"}
    ]},
    {"smiles": "CC(C)N1C[C@H](C)[C@@H](CN(C)Cc2cccc(Cl)c2)Oc2c(NC(=O)c3ccncc3)cccc2C1=O", "values": [
      {"measurement": "AC50", "setting": "[5]", "result": "0.00208 µM (active)"},
      {"measurement": "IC50", "setting": "[6]", "result": "0.00102 µM (active)"},
      {"measurement": "AC50", "setting": "[7]", "result": "0.00208 µM (active)"}
    ]},
    {"smiles": "Cn1c(=O)c2c(nc(NCc3ccco3)n2CCc2ccccc2)n(C)c1=O", "values": [
      {"measurement": "AC50", "setting": "[8]", "result": "50.9 µM (active)"},
      {"measurement": "AC50", "setting": "[9]", "result": "18.3 µM (active)"},
      {"measurement": "AC50", "setting": "[10]", "result": "2.27 µM (active)"},
      {"measurement": "AC50", "setting": "[11]", "result": "2.34 µM (active)"}
    ]},
    {"smiles": "COc1ccccc1C(=O)Nc1nc2ccccc2s1", "values": [
      {"measurement": "EC50", "setting": "BJ [12]", "result": "8.4 µM (active)"},
      {"measurement": "AC50", "setting": "[13]", "result": "10.9 µM (active)"},
      {"measurement": "AC50", "setting": "[14]", "result": "3.04 µM (active)"},
      {"measurement": "AC50", "setting": "[15]", "result": "0.172 µM (active)"},
      {"measurement": "AC50", "setting": "[16]", "result": "0.121 µM (active)"},
      {"measurement": "AC50", "setting": "Paired box protein Pax-8", "result": "3.69 µM (active)"},
      {"measurement": "EC50", "setting": "BJ [17]", "result": "15.8 µM (active)"},
      {"measurement": "AC50", "setting": "[18]", "result": "3.61 µM (active)"},
      {"measurement": "EC50", "setting": "[19]", "result": "0.296 µM (active)"},
      {"measurement": "AC50", "setting": "[20]", "result": "3.64 µM (active)"},
      {"measurement": "AC50", "setting": "[21]", "result": "2.59 µM (active)"},
      {"measurement": "EC50", "setting": "[22]", "result": "5.93 µM (active)"},
      {"measurement": "EC50", "setting": "[23]", "result": "3.96 µM (active)"},
      {"measurement": "AC50", "setting": "[24]", "result": "10.5 µM (active)"},
      {"measurement": "IC50", "setting": "[25]", "result": "> 80 µM (inactive)"},
      {"measurement": "AC50", "setting": "[26]", "result": "2.05 µM (active)"},
      {"measurement": "AC50", "setting": "[27]", "result": "2.44 µM (active)"},
      {"measurement": "AC50", "setting": "[28]", "result": "13.7 µM (active)"},
      {"measurement": "EC50", "setting": "BJ [29]", "result": "5.6 µM (active)"}
    ]},
    {"smiles": "COCCNc1nc(-n2nc(C)cc2C)nc2sc3c(c12)CCCC3", "values": [
      {"measurement": "IC50", "setting": "[30]", "result": "11.7 µM (active)"},
      {"measurement": "IC50", "setting": "[31]", "result": "2.1 µM (active)"},
      {"measurement": "IC50", "setting": "[32]", "result": "2.54 µM (active)"}
    ]}
  ]
}
